{"source": "paper PMC4541410", "about": "(Scientific Reports, 2015)", "key": {"[1]": {"test_system": "NP1525 (A/E)", "format": "cell-based", "conditions": "primary HIV-1 isolate, subtype A/E; read-out: IC50 (nM), infection by primary isolate NP1525 (A/E)"}, "[2]": {"test_system": "T20-resistant HIV-1 variant V38A", "format": "cell-based"}, "[3]": {"test_system": "T20-resistant HIV-1 strains"}, "[4]": {"test_system": "92TH009 (A/E)", "conditions": "read-out: IC50 (nM), infection by primary isolate 92TH009 (A/E); primary HIV-1 isolate, subtype A/E"}, "[5]": {"test_system": "93BR020 (F)", "format": "cell-based", "conditions": "primary HIV-1 isolate, subtype F; read-out: IC50 (nM), infection by primary isolate 93BR020 (F)"}, "[6]": {"test_system": "HIV-1IIIB (subtype B, X4)", "conditions": "read-out: IC50, inhibition of infection by HIV-1IIIB; MT-2 cells, 100 TCID50, p24 ELISA day 4; triplicate, repeated twice", "source_text": "(§1) Then, the culture supernatants were changed to fresh media. On the fourth day post-infection, culture supernatants were collected for detection of p24 antigen by ELISA. […] Then, the culture supernatants were changed to fresh media. On the fourth day post-infection, the culture supernatants were discarded and fresh media were complemented again. The supernatants were collected on the seventh day post-infection and tested for p24 antigen by ELISA as previously described. The percent inhibition of p24 production was calculated."}, "[7]": {"test_system": "HIV-1Bal (subtype B, R5)", "conditions": "read-out: IC50, inhibition of infection by HIV-1Bal; M7 cells, 100 TCID50, p24 ELISA day 7; triplicate, repeated twice", "source_text": "as §1"}, "[8]": {"test_system": "94US_33931N (B)", "conditions": "read-out: IC50 (nM), infection by primary isolate 94US_33931N (B); primary HIV-1 isolate, subtype B"}, "[9]": {"test_system": "preexisting antibodies in sera from HIV-1-infected patients", "test": "Sandwich ELISA: cross-reactivity of peptides with preexisting antibodies in HIV-1-infected patients", "format": "binding, human", "conditions": "peptide coated at 10 μg/ml, serially diluted sera, 37 °C 1 h, A450", "description": "A sandwich ELISA was conducted to determine the cross-reactivity of the peptides with the preexisting antibodies in HIV-1-infected patients. […] The wells were then blocked with 1% gelatin, followed by addition of 50 μl of serially diluted sera from HIV-1-infected patients and incubation at 37 °C for 1 h. Then, HRP-labeled goat-anti-human IgG (Abcam, UK) and TMB were added sequentially. A450 was determined with an ELISA reader (Ultra 384, Tecan)."}, "[10]": {"test_system": "92UG024 (D)", "format": "cell-based", "conditions": "primary HIV-1 isolate, subtype D; read-out: IC50 (nM), infection by primary isolate 92UG024 (D)"}, "[11]": {"test_system": "T20-resistant HIV-1 variant N42T/N43K", "format": "cell-based"}, "[12]": {"test_system": "92UG029 (A)", "conditions": "read-out: IC50 (nM), infection by primary isolate 92UG029 (A); primary HIV-1 isolate, subtype A"}, "[13]": {"test": "in vivo", "conditions": "male, Sprague-Dawley (SD), rat, plasma, iv, 1 mg/kg", "procedure": "Four male SD rats weighing approximately 200 g each were obtained from the Shanghai Medical School Animal Center and were used for the half-life assay. […] After injection, blood samples were acquired from rat orbit at several time points (8 and 30 min and 1.5, 3, 6, 9, 12 and 24 h after peptide injection) and placed in clean tubes. […] Then, HRP-labeled rabbit-anti-mouse IgG (Sigma, USA) and TMB were added in order. Absorbance at 450 nm was determined by an ELISA reader (Ultra 384, Tecan). The standard peptide parameters were obtained first. Then, the plasma peptide concentrations were determined as a function of time and the half-life was calculated by using PK Solver for Microsoft Excel to obtain pharmacokinetic parameters."}, "[14]": {"biological_target": "T1, gp41 6-HB formation between N36 and C34 (Human immunodeficiency virus type 1 group M subtype B, UniProt P04578)", "T1 construct": "gp41 NHR (“N36”, 546-581); made in house; host or cells: chemical solid-phase FMOC synthesis", "T1 sequence (P04578 546-581)": "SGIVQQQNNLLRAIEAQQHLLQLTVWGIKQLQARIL", "test": "biochemical", "format": "biochemical, HIV-1", "description": "Inhibition of gp41 six-helix bundle formation by a testing peptide was determined with a sandwich ELISA described previously. […] A450 was determined by an ELISA reader (Ultra 384, Tecan)."}, "[15]": {"biological_target": "T2, N36 (gp41 NHR peptide) (Human immunodeficiency virus type 1 group M subtype B, UniProt P04578)", "T2 construct": "gp41 NHR (“N36”, 546-581); made in house; host or cells: chemical solid-phase FMOC synthesis", "T2 sequence (P04578 546-581)": "as above", "test": "CD spectroscopy and thermal midpoint analysis of peptide/N36 complexes", "format": "physicochemical, HIV-1", "description": "Briefly, each peptide or peptide mixture was dissolved in phosphate-buffered saline (PBS: 50 mM sodium phosphate and 150 mM NaCl, pH 7.2) at the final concentration of 10 μM and incubated at 37 °C for 30 min before cooling down to 4 °C. The CD spectra of each sample were acquired on a Jasco spectropolarimeter (Model J-815, Jasco Inc., Japan) at 4 °C using a 5 nm bandwidth, 0.1 nm resolution, 0.1 cm path length and an average time of 5.0 sec. Spectra were corrected by the subtraction of a blank corresponding to the solvent composition of each sample. Thermal midpoint analysis was used to determine the temperature at which 50% of the 6-HB formed by the CHR and NHR would decompose. It was monitored at 222 nm from 4 °C to 98 °C by applying a thermal gradient of 5 °C/min. The melting curve was smoothed and the midpoint of the thermal unfolding transition (Tm) values was calculated using Jasco software utilities as described above."}, "[16]": {"test_system": "T20-resistant HIV-1 variant V38A/N42D", "format": "cell-based"}}, "note": "Where a SMILES comes first, the peptide text is derived from it."}
{"smiles": "CC[C@H](C)[C@H](NC(=O)[C@H](CO)NC(=O)[C@H](CCC(=O)O)NC(=O)[C@H](CCC(=O)O)NC(=O)[C@H](CCC(N)=O)NC(=O)[C@H](CCCCN)NC(=O)[C@H](CCCCN)NC(=O)[C@@H](NC(=O)[C@H](CCC(N)=O)NC(=O)[C@H](CCC(=O)O)NC(=O)[C@H](CCC(=O)O)NC(=O)[C@@H](NC(=O)[C@H](CCCCN)NC(=O)[C@H](CCCCN)NC(=O)[C@@H](NC(=O)[C@H](CC(C)C)NC(=O)[C@H](CCC(=O)O)NC(=O)[C@H](CCC(=O)O)NC(=O)[C@H](CO)NC(=O)[C@H](CCCCN)NC(=O)[C@H](CCCCN)NC(=O)[C@@H](NC(=O)[C@H](CC(C)C)NC(=O)[C@H](CCC(=O)O)NC(=O)[C@H](CCC(=O)O)NC(=O)[C@@H](NC(=O)[C@H](CCCCN)NC(=O)[C@H](CCCCN)NC(=O)[C@H](CC(=O)O)NC(=O)[C@H](Cc1c[nH]c2ccccc12)NC(=O)[C@H](CCC(=O)O)NC(=O)[C@H](CCC(=O)O)NC(=O)[C@H](Cc1c[nH]c2ccccc12)NC(=O)[C@@H](NC(=O)[C@H](CCSC)NC(C)=O)[C@@H](C)O)[C@@H](C)CC)[C@@H](C)CC)[C@@H](C)CC)[C@@H](C)CC)[C@@H](C)CC)C(=O)N[C@@H](CCCCN)C(=O)N[C@@H](CCCCN)C(N)=O", "note": "[AP3] (Ac-MTWEEWDKKIEELIKKSEELIKKIEEQIKKQEESIKK-NH2)", "values": [{"measurement": "IC50", "setting": "[1]", "result": "32.3 ± 8.8", "unit": "nM"}, {"measurement": "IC50", "setting": "[2]", "result": "12.6 ± 2.66", "unit": "nM"}, {"measurement": "fold more effective than AP2 against T20-resistant strains", "setting": "[3]; AP3 versus AP2", "result": "2- to 4 fold"}, {"measurement": "IC50", "setting": "[3]; read-out: IC50 against T20-resistant HIV-1 strains (summary), over the T20-resistant strains of Table 1", "result": "13 to 90", "unit": "nM"}, {"measurement": "IC50", "setting": "[4]", "result": "27.8 ± 5.5", "unit": "nM"}, {"measurement": "IC50", "setting": "[5]", "result": 19.9, "unit": "nM"}, {"measurement": "IC50", "setting": "[6]", "result": 3.06, "unit": "nM"}, {"measurement": "IC50", "setting": "[7]", "result": 15.1, "unit": "nM"}, {"measurement": "IC50", "setting": "[8]", "result": "10.2 ± 0.7", "unit": "nM"}, {"measurement": "reactivity with antibodies in sera from five HIV-1-infected patients", "setting": "[9]", "result": "none of the three artificial peptides AP1, AP2 and AP3 was recognized"}, {"measurement": "IC50", "setting": "[10]", "result": "16.5 ± 0.2", "unit": "nM"}, {"measurement": "IC50", "setting": "[11]", "result": "35.2 ± 12.5", "unit": "nM"}, {"measurement": "IC50", "setting": "[12]", "result": "7.1 ± 1.7", "unit": "nM"}, {"measurement": "MRT", "setting": "[13]", "result": 8.69, "unit": "h"}, {"measurement": "half-life", "setting": "[13]", "result": 6.02, "unit": "h"}, {"measurement": "IC50", "setting": "[14]", "result": 240, "unit": "nM"}, {"measurement": "fold more potent than AP1 against 6-HB formation", "setting": "[14]; AP3 versus AP1", "result": "about 30 fold"}, {"measurement": "fold more potent than AP2 against 6-HB formation", "setting": "[14]; AP3 versus AP2", "result": "~15", "unit": "fold"}, {"measurement": "Tm of complex with N36", "setting": "[15]; CD thermal denaturation at 222 nm, 4 to 98 °C, 5 °C/min, 10 μM in PBS pH 7.2", "result": "83.6 ^oC"}, {"measurement": "α-helix content of complex with N36", "setting": "[15]; CD, peptide/N36 mixture 10 μM in PBS pH 7.2, 4 °C", "result": 77.84, "unit": "%"}, {"measurement": "IC50", "setting": "[16]", "result": "31.3 ± 6.62", "unit": "nM"}]}
